Measured values taken from ChEMBL document CHEMBL3611985, “Synthesis and structure-activity relationships of novel 9-oxime acylides with improved bactericidal activity” (2015).
≈ marks a conversion by molar mass, not a printed value.

Key:
Assay type in all cases: functional
Streptococcus pneumoniae [1] = test: Antimicrobial activity against erythromycin-susceptible Streptococcus pneumoniae ATCC 49619 incubated for 20 to 24 hrs by two-fold microbroth dilution method
Streptococcus pneumoniae [2] = test: Antimicrobial activity against penicillin-susceptible Streptococcus pneumoniae PU09 incubated for 20 to 24 hrs by two-fold microbroth dilution method
Streptococcus pyogenes [3] = test: Antimicrobial activity against Streptococcus pyogenes 01-968 expressing inducible ermA incubated for 20 to 24 hrs by two-fold microbroth dilution method
Staphylococcus aureus [4] = test: Antimicrobial activity against methicillin-resistant Staphylococcus aureus PU32 expressing inducible ermA incubated for 20 hrs by two-fold microbroth dilution method; settings: PU32, 20 h
Staphylococcus aureus [5] = test: Antimicrobial activity against methicillin-resistant Staphylococcus aureus PU20 expressing constitutive ermC incubated for 20 hrs by two-fold microbroth dilution method; settings: PU20, 20 h
Haemophilus influenzae [6] = test: Antimicrobial activity against azithromycin-susceptible and ampicillin-resistant Haemophilus influenzae 11P037 incubated for 20 to 24 hrs by two-fold microbroth dilution method
Streptococcus pneumoniae [7] = test: Antimicrobial activity against Streptococcus pneumoniae 07P390 expressing constitutive ermB incubated for 20 to 24 hrs by two-fold microbroth dilution method
Streptococcus pneumoniae [8] = test: Ratio of MBC to MIC against erythromycin-susceptible Streptococcus pneumoniae ATCC 49619
Moraxella catarrhalis [9] = test: Ratio of MBC to MIC against erythromycin-susceptible Moraxella catarrhalis 11B366
Staphylococcus aureus [10] = test: Bactericidal activity against methicillin-resistant Staphylococcus aureus PU20 expressing constitutive ermC incubated for 20 hrs followed by sub-culturing for 24 hrs in absence of compound
Streptococcus pyogenes [11] = test: Ratio of MBC to MIC against Streptococcus pyogenes 12-207 expressing mef
Staphylococcus aureus [12] = test: Bactericidal activity against methicillin-resistant Staphylococcus aureus PU32 expressing inducible ermA incubated for 20 hrs followed by sub-culturing for 24 hrs in absence of compound
Streptococcus pyogenes [13] = test: Bactericidal activity against Streptococcus pyogenes 01-968 expressing inducible ermA incubated for 20 to 24 hrs followed by sub-culturing for 24 hrs in absence of compound
Streptococcus pneumoniae [14] = test: Bactericidal activity against penicillin-susceptible Streptococcus pneumoniae PU09 incubated for 20 to 24 hrs followed by sub-culturing for 24 hrs in absence of compound
Streptococcus pyogenes [15] = test: Antimicrobial activity against Streptococcus pyogenes 12-207 expressing mef incubated for 20 to 24 hrs by two-fold microbroth dilution method
Streptococcus pneumoniae [16] = test: Ratio of MBC to MIC against penicillin-susceptible Streptococcus pneumoniae PU09
Streptococcus pyogenes [17] = test: Ratio of MBC to MIC against Streptococcus pyogenes 01-968 expressing inducible ermA
Streptococcus pneumoniae [18] = test: Bactericidal activity against erythromycin-susceptible Streptococcus pneumoniae ATCC 49619 incubated for 20 to 24 hrs followed by sub-culturing for 24 hrs in absence of compound
Moraxella catarrhalis [19] = test: Antimicrobial activity against erythromycin-susceptible Moraxella catarrhalis 11B366 incubated for 20 hrs by two-fold microbroth dilution method; settings: 11B366, 20 h
Staphylococcus aureus [20] = test: Ratio of MBC to MIC against methicillin-resistant Staphylococcus aureus PU32 expressing inducible ermA
Staphylococcus aureus [21] = test: Ratio of MBC to MIC against methicillin-resistant Staphylococcus aureus PU20 expressing constitutive ermC
Streptococcus pyogenes [22] = test: Bactericidal activity against Streptococcus pyogenes 12-207 expressing mef incubated for 20 to 24 hrs followed by sub-culturing for 24 hrs in absence of compound
Moraxella catarrhalis [23] = test: Bactericidal activity against erythromycin-susceptible Moraxella catarrhalis 11B366 incubated for 20 hrs followed by sub-culturing for 24 hrs in absence of compound
Haemophilus influenzae [24] = test: Ratio of MBC to MIC against azithromycin-susceptible and ampicillin-resistant Haemophilus influenzae 11P037
Haemophilus influenzae [25] = test: Bactericidal activity against azithromycin-susceptible and ampicillin-resistant Haemophilus influenzae 11P037 incubated for 20 to 24 hrs followed by sub-culturing for 24 hrs in absence of compound

| SMILES | MIC (Streptococcus pneumoniae [1]) [µg/mL] | MIC (Streptococcus pneumoniae [2]) [µg/mL] | MIC (Streptococcus pyogenes [3]) [µg/mL] | MIC (Staphylococcus aureus [4]) [µg/mL] | MIC (Staphylococcus aureus [5]) [µg/mL] | MIC (Haemophilus influenzae [6]) [µg/mL] | MIC (Streptococcus pneumoniae [7]) [µg/mL] | Ratio (Moraxella catarrhalis [9]) | Ratio (Streptococcus pyogenes [11]) | MBC (Staphylococcus aureus [12]) [µg/mL] | MBC (Streptococcus pyogenes [13]) [µg/mL] | MIC (Streptococcus pyogenes [15]) [µg/mL] | MIC (Moraxella catarrhalis [19]) [µg/mL] | Ratio (Staphylococcus aureus [20]) | MBC (Streptococcus pyogenes [22]) [µg/mL] | MBC (Moraxella catarrhalis [23]) [µg/mL] | further results |
| --- | --- | --- | --- | --- | --- | --- | --- | --- | --- | --- | --- | --- | --- | --- | --- | --- | --- |
| CC[C@H]1OC(=O)[C@H](C)[C@@H](OC(=O)Cc2ccccn2)[C@H](C)[C@@H](O[C@@H]2O[C@H](C)C[C@H](N(C)C)[C@H]2O)[C@](C)(OC)C[C@@H](C)/C(=N\OCCCc2cncc(NC(=O)Cc3ccccn3)c2)[C@H](C)[C@H]2OC(=O)O[C@@]21C | 0.125 (≈ 0.125 µM) | 4 (≈ 3.99 µM) | 8 (≈ 7.97 µM) | 4 (≈ 3.99 µM) | > 64 | > 64 | 4 (≈ 3.99 µM) | – | – | – | – | – | – | – | – | – | – |
| CC[C@H]1OC(=O)[C@H](C)[C@@H](OC(=O)Cc2ccccn2)[C@H](C)[C@@H](O[C@@H]2O[C@H](C)C[C@H](N(C)C)[C@H]2O)[C@](C)(OC)C[C@@H](C)/C(=N\OC/C=C/c2cncc(NC(=O)Cc3ccccn3)c2)[C@H](C)[C@H]2OC(=O)O[C@@]21C | 0.062 (≈ 0.0619 µM) | 2 (≈ 2 µM) | 4 (≈ 4 µM) | 2 (≈ 2 µM) | > 64 | > 64 | 2 (≈ 2 µM) | – | – | – | – | – | – | – | – | – | – |
| CC[C@H]1OC(=O)[C@H](C)[C@@H](OC(=O)Cc2ccccn2)[C@H](C)[C@@H](O[C@@H]2O[C@H](C)C[C@H](N(C)C)[C@H]2O)[C@](C)(OC)C[C@@H](C)/C(=N\OCC#Cc2ccc(-n3ccnc3)cc2)[C@H](C)[C@H]2OC(=O)O[C@@]21C | 0.125 (≈ 0.134 µM) | 2 (≈ 2.15 µM) | 0.062 (≈ 0.0667 µM) | 2 (≈ 2.15 µM) | 32 (≈ 34.4 µM) | > 256 | – | 2 | 8 | > 16 | > 0.5 | 1 (≈ 1.08 µM) | 4 (≈ 4.3 µM) | >8 | 8 (≈ 8.6 µM) | 8 (≈ 8.6 µM) | Ratio (Streptococcus pneumoniae [8]): 2; MBC (Staphylococcus aureus [10]): 64 µg/mL (≈ 68.8 µM); MBC (Streptococcus pneumoniae [14]): 4 µg/mL (≈ 4.3 µM); Ratio (Streptococcus pneumoniae [16]): 2; Ratio (Streptococcus pyogenes [17]): >8; MBC (Streptococcus pneumoniae [18]): 0.25 µg/mL (≈ 0.269 µM); Ratio (Staphylococcus aureus [21]): 2 |
| CC[C@H]1OC(=O)[C@H](C)[C@@H](OC(=O)Cc2ccccn2)[C@H](C)[C@@H](O[C@@H]2O[C@H](C)C[C@H](N(C)C)[C@H]2O)[C@](C)(OC)C[C@@H](C)/C(=N\OCC#Cc2ccc(N)nc2)[C@H](C)[C@H]2OC(=O)O[C@@]21C | 0.008 (≈ 0.00909 µM) | 0.5 (≈ 0.568 µM) | 1 (≈ 1.14 µM) | 0.5 (≈ 0.568 µM) | > 64 | 32 (≈ 36.4 µM) | 2 (≈ 2.27 µM) | – | – | – | – | – | – | – | – | – | – |
| CC[C@H]1OC(=O)[C@H](C)[C@@H](OC(=O)Cc2ccccn2)[C@H](C)[C@@H](O[C@@H]2O[C@H](C)C[C@H](N(C)C)[C@H]2O)[C@](C)(OC)C[C@@H](C)/C(=N\OCC#Cc2ccc(NC(=O)Cc3ccccn3)nc2)[C@H](C)[C@H]2OC(=O)O[C@@]21C | 0.062 (≈ 0.0621 µM) | 1 (≈ 1 µM) | 4 (≈ 4 µM) | 4 (≈ 4 µM) | > 64 | > 64 | 1 (≈ 1 µM) | – | – | – | – | – | – | – | – | – | – |
| CC[C@H]1OC(=O)[C@H](C)C(=O)[C@H](C)[C@@H](O[C@@H]2O[C@H](C)C[C@H](N(C)C)[C@H]2O)[C@](C)(OC)C[C@@H](C)C(=O)[C@H](C)[C@H]2N(CCCCn3cnc(-c4cccnc4)c3)C(=O)O[C@]12C [TELITHROMYCIN] | 0.031 (≈ 0.0382 µM) | 0.25 (≈ 0.308 µM) | 2 (≈ 2.46 µM) | 0.25 (≈ 0.308 µM) | > 64 | 2 (≈ 2.46 µM) | 0.062 (≈ 0.0764 µM) | 1 | 2 | > 1 | 0.125 (≈ 0.154 µM) | 0.5 (≈ 0.616 µM) | 0.25 (≈ 0.308 µM) | >8 | 1 (≈ 1.23 µM) | 0.25 (≈ 0.308 µM) | Ratio (Haemophilus influenzae [24]): 4; MBC (Haemophilus influenzae [25]): 4 µg/mL (≈ 4.93 µM) |
